Here are results for five substances from patent US5876715A, “Antibodies that bind novel carbohydrate ligands (myelorollins) that cause E-selectin dependent cell rolling, and uses thereof” (The Biomembrane Institute, priority 1996, dated 1999).

“Also recorded” adds a separate entry of the source.

The first assay deals with E-selectin-expressing CHO cells. As to the kind of experiment: Static adhesion assay using 96-well plates coated with gangliosides. Type of assay: cell-based, Chinese hamster. The following applies: static conditions; ganglioside coated on 96-well plates (25 to 200 ng); [3H]thymidine-labeled cells; control with mAb E1C. An excerpt: Adhesion of E-selectin-expressing CHO cells to various quantities of poly-LacNAc gangliosides coated on 96-well plates (Falcon, Becton-Dickinson, Lincoln Park, N.J.). Points represent mean experimental minus control value in the presence of mAb E1C, ±SE of triplicate experiments. .circle-solid.SLe^x -Le^x, Δ Fr. 10-1, .tangle-solidup. Fr. 10-2, .quadrature. Fr. 9, .smallcircle. Fr. 12-2.
Static adhesion assay using 96-well plates: Poly-LacNAc gangliosides with SLe^x -Le^x structure and Frs. 9, 10-1, 10-2 and 12-2, dissolved in 50% ethanol, were serially diluted in 96-well plates (the first well contained 200 ng), and plates were dried at 37° C. for 5 hr. Plates with similar serial dilutions of poly-LacNAc gangliosides were prepared for control cell adhesion in the presence of mAb E1C (see above). E-selectin-expressing CHO cells (Handa et al., Int. J. Oncol. 6:773-781 (1995)) were metabolically labeled with [^3 H] thymidine and incubated for 2 days. Cell suspension (2×10^6 per mL) was prepared by 2 mM EDTA treatment of cultured cells. A 50 μL aliquot of this cell suspension (containing 1×10^5 cells; approximately 5000 cpm) was added to each well and incubated for 1 hr. As a control, EDTA-harvested cells were washed with DMEM and incubated with mAb E1C on ice for 30 min, followed by preparation of cell suspension as above, but containing 10 μg mAb E1C per mL. Aliquots were added to each well and incubated as above. Cells were washed 3× with PBS by inversion of the plate on blotting paper. Adherent cell count as measured by ^3 H activity was determined.
Additional details of the experiment whose data are shown in FIGS. 1A and 1B are as follows: SLe^x -Le^x and poly-LacNAc gangliosides (Frs. 7, 9, 10-1, 10-2, 12-2, 13-1 and 14) dissolved in 50% ethanol were appropriately diluted and coated on wells of 96-well plates (amounts of 25 to 200 ng as shown on abscissa). Wells were dried at 37° C. for 5 hr. Two identical plates (1 and 2) were prepared in this way. To each well of plate 1, 50 μL aliquots of RPMI containing 1×10^5 E-selectin-expressing CHO cells metabolically labeled with [^3 H] thymidine were added. To each well of plate 2, aliquots of the same cell preparation preincubated with anti-E-selectin mAb E1C (10 μg Ig per mL) and suspended in RPMI containing mAb E1C were added. Plates 1 and 2 were incubated for 25 min. and washed with PBS. […] Each well was filled with 200 μL of PBS, carefully shaken, and plates were inverted on blotting paper for 10 min. All non-adherent cells were sedimented and absorbed on the blotting paper. Adherent cells remaining on wells were counted. Cell numbers (expressed on ordinate) were calculated based on measured radioactivity. Solid circle, SLe^x -Le^x without E1C (from plate 1). Open circle, SLe^x -Le^x with E1C (from plate 2). Adhesion values from various poly-LacNAc gangliosides with and without E1C were all near zero and cannot be distinguished on the graph.
Static adhesion assay using 96-well plates: Poly-LacNAc gangliosides with SLe^x -Le^x structure, and Fr. 9, 10-1, 10-2, and 12-2, dissolved in 50% ethanol, were serially diluted in 96-well plates (the first well contained […]), and plates were dried at 37° C. for 5 hr. Plates with similar serial dilutions of poly-LacNAc gangliosides were prepared for control cell adhesion in the presence of mAb E1C […] (see above). E-selectin-expressing CHO cells (Handa et al., 1995, Int. J. Oncol. 6:773-781) were metabolically labeled with [^3 H]thymidine and incubated for 2 days. Cell suspension (2×10^6 per mL) was prepared by 2 mM EDTA treatment of cultured cells. A 50 μL aliquot of this cell suspension (containing 1×10^5 cells; about 5000 cpm) was added to each well and incubated for 1 hr. As a control, EDTA-harvested cells were washed with DMEM and incubated with mAb E1C (10 μg/ml) on ice for 30 min, followed by preparation of cell suspension as above, but containing 10 μg E1C per mL. Aliquots were added to each well and incubated as above. […]
Turning to “VI^3 NeuAcV^3 FucIII^3 FucnLc6 Cer [SLe^x -Le^x, reference compound]”, the “adhesion of E-selectin-expressing CHO cells” value is “much stronger adhesion than myelorollin (Frs. 13-1 and 14); also recorded: capable of binding E-selectin expressing cells”.
Still for that read-out and setting: to “VIII^3 NeuAcIII^3 FucnLc8 Cer [Fr. 10-2]” belongs “little or no adhesion”; to VIII^3 NeuAcV^3 FucnLc8 Cer [Fr. 10-1], “little or no adhesion”.
In the case of VI^3 NeuAcnLc6 Cer [Fr. 7], the “adhesion of E-selectin-expressing CHO cells” value is recorded as “little or no adhesion”.
Still for that read-out and setting: as for X^3 NeuAcVII^3 FucnLc10 Cer [Fr. 12-2], the entry is “little or no adhesion”.

The same assay, now with this note: static conditions; ganglioside coated on 96-well plates (25 to 200 ng); [3H]thymidine-labeled cells; control with mAb E1C; listed as SLE^x -Le^x.
As to “VI^3 NeuAcV^3 FucIII^3 FucnLc6 Cer [SLe^x -Le^x, reference compound]”, the “adhesion of E-selectin-expressing CHO cells” value is given as “bound to E-selectin”.
